This is an account of results in patent US6713475B2, “Tricyclic benzodiazepines as vasopressin receptor antagonists” (Ortho-McNeil Pharmaceutical, Inc., priority 1999, dated 2004).

Structures can show the parent of a compound that is named as a salt.

One data set concerns the target V2 (Homo sapiens, UniProt P30518). As to the kind of experiment: In vitro recombinant vasopressin receptor binding assay (V2 Bdg), displacement of 3H-arginine vasopressin. Further details: expressed in transfected cells; host or cells: HEK-293. The following applies: for IC50: membrane with cloned human V-2 receptor (HEK-293); for V2 Bdg % inh: 0.1 uM, printed in parentheses in place of IC50. An outline of the steps: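 Displacement of ³H-vasopressin from membranes of HEK-293 cells bearing cloned human V-2 receptor, incubated with test compound one hour at room temperature. Bound label was collected on PEI-soaked GF/C filters, washed with cold saline/0.05% Tween 20, and counted by scintillation.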
(Displacement assays read how much labelled ligand stays bound in the presence of the test substance.)

Another data set has as its target T1, human V-1 receptor (Homo sapiens, UniProt P37288).
T1 construct: expressed in transfected cells; host or cells: HEK-293
As to the kind of experiment: In vitro recombinant vasopressin receptor binding assay (V1 Bdg), displacement of 3H-arginine vasopressin. The following applies: for inhibition at 0.1 µM: read-out: V1 Bdg (% inh, 0.1 uM). An outline of the steps:
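Membranes from HEK-293 cells bearing cloned human V-1 receptor, incubated 1 h at room temperature with 0.65-0.75 nM 3H-arginine-8-vasopressin in pH 7.5 Tris/MgCl2/BSA buffer with protease inhibitors. Filtration onto GF/C, scintillation count. Non-specific binding with 1.25 uM arginine-8-vasopressin.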

T1 sequence (P37288 whole entry): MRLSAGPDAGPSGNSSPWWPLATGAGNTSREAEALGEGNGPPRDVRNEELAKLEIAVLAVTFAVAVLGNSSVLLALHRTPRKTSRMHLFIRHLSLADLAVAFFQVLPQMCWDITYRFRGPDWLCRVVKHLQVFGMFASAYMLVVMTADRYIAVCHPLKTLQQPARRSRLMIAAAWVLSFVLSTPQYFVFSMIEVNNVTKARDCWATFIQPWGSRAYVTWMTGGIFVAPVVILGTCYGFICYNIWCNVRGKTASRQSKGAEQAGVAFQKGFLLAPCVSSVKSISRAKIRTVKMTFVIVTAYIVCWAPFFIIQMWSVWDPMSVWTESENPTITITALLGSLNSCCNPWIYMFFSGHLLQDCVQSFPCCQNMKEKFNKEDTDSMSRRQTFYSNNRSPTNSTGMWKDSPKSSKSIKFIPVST

A word on the melting point: it is the temperature of the solid-liquid transition. For the molecule `O=C(Nc1ccc(C(=O)N2CC3CSCCN3Cc3cc(F)ccc32)cc1)c1ccccc1-c1ccccc1` (racemic) (as salt: HCl) [Compound 32, (RS)-2-Phenyl-N-[4-(8-fluoro-1,3,4,12a-tetrahydro-6H-[1,4]thiazino[4,3-a][1,4]-benzodiazepin-11(12H)-yl-carbonyl)phenyl]benzamide], the melting point is 177 to 180 °C.

As to `O=C(Nc1ccc(C(=O)N2C[C@H]3CSCCN3Cc3ccccc32)c(Cl)c1)c1ccccc1-c1ccccc1` (as salt: HCl) [Compound 47, (S)-2-Phenyl-N-[3-chloro-4-(1,3,4,12a-tetrahydro-6H-[1,4]thiazino[4,3-a][1,4]-benzodiazepin-11(12H)-yl-carbonyl)phenyl]benzamide], the melting point lay within 192 to 197 °C.

`O=C(Nc1ccc(C(=O)N2CC3CCCCN3Cc3ccccc32)cc1)c1ccccc1-c1ccccc1` (stereo not drawn) (as salt: HCl) [Compound 1, 10-[4-[[(2-Biphenyl)carbonyl]amino]benzoyl]-10,11-dihydro-5H-piperidino[2,1-c][1,4]benzodiazepine]: the melting point lay in the range of 191 to 193 °C.

With `O=C(Nc1ccc(C(=O)N2C[C@H]3COCCN3Cc3ccccc32)c(Cl)c1)c1ccccc1-c1ccccc1` (as salt: HCl) (hydrate or solvate) [Compound 4, (S)-2-Phenyl-N-[3-chloro-4-(1,3,4,12a-tetrahydro-6H-[1,4]oxazino[4,3-a][1,4]-benzodiazepin-11(12H)-yl-carbonyl)phenyl]benzamide], the melting point is > 210 °C (dec.).

In general, IC50 refers to the point on the concentration scale where inhibition reaches its midpoint. On to `Cc1ccc(-c2ccccc2C(=O)Nc2ccc(C(=O)N3CC4COCCN4Cc4ccccc43)c(F)c2)cc1` (racemic) [Compound 30, (RS)-2-(4-Methyl-phenyl)-N-[3-fluoro-4-(1,3,4,12a-tetrahydro-6H-[1,4]oxazino[4,3-a][1,4]-benzodiazepin-11(12H)-yl-carbonyl)phenyl]benzamide], for which the half-maximal inhibitory concentration (IC50) at V2 stood at 0.014 µM. Also, the inhibition at 0.1 µM on human V-1 receptor is 74%.

For the molecule `O=C(Nc1ccc(C(=O)N2CC3CSCCN3Cc3cc(Cl)ccc32)cc1)c1ccccc1-c1ccccc1` (racemic) [Compound 37, (RS)-2-Phenyl-N-[4-(8-chloro-1,3,4,12a-tetrahydro-6H-[1,4]thiazino[4,3-a][1,4]-benzodiazepin-11(12H)-yl-carbonyl)phenyl]benzamide], the IC50 on V2 turned out to be 0.022 µM. Also, the inhibition at 0.1 µM at human V-1 receptor was found to be 75%.

With `COc1cc(NC(=O)c2ccccc2-c2ccccc2)ccc1C(=O)N1CC2CN(C)CCN2Cc2ccccc21` (racemic) [Compound 84, (RS)-2-Phenyl-N-[3-methoxy-4-(1,3,4,12a-tetrahydro-2-methyl-6H-[1,4]pyrazino[4,3-a][1,4]-benzodiazepin-11(12H)-yl-carbonyl)phenyl]benzamide], the “V2 Bdg % inh” value at V2 is given as “(36%/0.1 uM)”. For the same molecule, at human V-1 receptor (1 uM), the “V1 Bdg % inh” value was “(10%/1 uM)”.

`Cc1ccccc1C(=O)Nc1ccc(C(=O)N2CC3COCCN3Cc3ccccc32)c(C)c1` (racemic) [Compound 27, (RS)-2-M ethyl-N-[3-methyl-4-(1,3,4,12a-tetrahydro-6H-[1,4]oxazino[4,3-a][1,4]-benzodiazepin-11(12H)-yl-carbonyl)phenyl]benzamide]: the IC50 on V2 was found to be 0.013 µM. The inhibition at 0.1 µM on human V-1 receptor stood at 7%.

Take `Cc1ccccc1C(=O)Nc1c(C)cc(C(=O)N2CC3CN(C)CCN3Cc3ccccc32)cc1C` (racemic) [Compound 80, (RS)-2-Methyl-N-[2,6-dimethyl-4-(1,3,4,12a-tetrahydro-2-methyl-6H-[1,4]pyrazino[4,3-a][1,4]-benzodiazepin-11(12H)-yl-carbonyl)phenyl]benzamide]: the “V2 Bdg % inh” value at V2 is “(6%/0.1 uM)”. Further, the “V1 Bdg % inh” value at human V-1 receptor (1 uM) is “(19%/1 uM)”.

`O=C(Nc1ccc(C(=O)N2CC3COCCN3Cc3ccccc32)c(Cl)c1)c1cc(F)c(F)c(F)c1F` (racemic) [Compound 16, (RS)-2,3,4,5-Tetrafluoro-N-[3-chloro-4-(1,3,4,12a-tetrahydro-6H-[1,4]oxazino[4,3-a][1,4]-benzodiazepin-11(12H)-yl-carbonyl)phenyl]benzamide]: the IC50 on V2 was determined as 0.025 µM. The inhibition at 0.1 µM on human V-1 receptor was determined as 20%.

For the molecule `O=CN1CCN2Cc3ccccc3N(C(=O)c3ccc(NC(=O)c4ccccc4-c4ccccc4)cc3)CC2C1` (racemic) [Compound 59, (RS)-2-Phenyl-N-[4-(1,3,4,12a-tetrahydro-2-formyl-6H-[1,4]pyrazino[4,3-a][1,4]-benzodiazepin-11(12H)-yl-carbonyl)phenyl]benzamide], the “V2 Bdg % inh” value at V2 is on record as “(29%/0.1 uM)”. The “V1 Bdg % inh” value at human V-1 receptor (10 uM) was “(17%/10 uM)”.

Take `Cc1ccccc1C(=O)Nc1ccc(C(=O)N2CC3CN(C)CCN3Cc3ccccc32)cc1` (racemic) [Compound 86, (RS)-2-Methyl-N-[4-(1,3,4,12a-tetrahydro-2-methyl-6H-[1,4]pyrazino[4,3-a][1,4]-benzodiazepin-11(12H)-yl-carbonyl)phenyl]benzamide]: on V2, the “V2 Bdg % inh” value is “(1%/0.1 uM)”. Also, the “V1 Bdg % inh” value on human V-1 receptor (1 uM) is recorded as “(33%/1 uM)”.

For the molecule `O=C(Nc1ccc(C(=O)N2CC3CSCCN3Cc3cc(F)ccc32)c(Cl)c1)c1ccccc1-c1ccccc1` (racemic) [Compound 38, (RS)-2-Phenyl-N-[3-chloro-4-(8-fluoro-1,3,4,12a-tetrahydro-6H-[1,4]thiazino[4,3-a][1,4]-benzodiazepin-11 (12H)-yl-carbonyl)phenyl]benzamide], the IC50 at V2 was determined as 0.018 µM. In addition, the inhibition at 0.1 µM on human V-1 receptor came to 9%.

Consider `Cc1ccc(F)c(C(=O)Nc2ccc(C(=O)N3CC4CN(C)CCN4Cc4ccccc43)c(Cl)c2)c1` (racemic) [Compound 96, (RS)-2-Fluoro-5-methyl-N-[3-chloro-4-(1,3,4,12a-tetrahydro-2-methyl-6H-[1,4]pyrazino[4,3-a][1,4]-benzodiazepin-11(12H)-yl-carbonyl)phenyl]benzamide], for which, at V2, the “V2 Bdg % inh” value is on record as “(3%/0.1 uM)”. Further, the “V1 Bdg % inh” value at human V-1 receptor (1 uM) was “(9%/1 uM)”.

Regarding “(RS)-2-Phenyl-N-[4-(9-chloro-1,3,4,12a-tetrahydro-6H-[1,4]thiazino[4,3-a][1,4]-benzodiazepin-11(12H)-yl-carbonyl)phenyl]benzamide [Compound 34]”, on V2, the “V2 Bdg % inh” value is given as “(41%/0.1 uM)”. Moreover, the “V1 Bdg % inh” value at human V-1 receptor (10 uM) is reported as 1%/10 uM.

As for `Cc1cccc(C(=O)Nc2ccc(C(=O)N3CC4CSCCN4Cc4ccccc43)c(Cl)c2)c1I` (racemic) [Compound 42, (RS)-2-Iodo-3-methyl-N-[3-chloro-4-(1,3,4,12a-tetrahydro-6H-[1,4]thiazino[4,3-a][1,4]-benzodiazepin-11(12H)-yl-carbonyl)phenyl]benzamide], at V2, the “V2 Bdg % inh” value is given as “(62%/0.1 uM)”. In addition, at human V-1 receptor, the “V1 Bdg (% inh, 0.1 uM)” value was 0%.

On to “(RS)-3,5-Dichloro-N-[3-chloro-4-(1,3,4,12a-tetrahydro-6H-[1,4]thiazino[4,3-a][1,4]-benzodiazepin-11(12H)-yl-carbonyl)phenyl]benzamide [Compound 43]”, for which the “V2 Bdg % inh” value at V2 was “(47%/0.1 uM)”. At human V-1 receptor, the “V1 Bdg (% inh, 0.1 uM)” value came to 11%.

Take `CN(C)c1cc(NC(=O)c2ccccc2-c2ccccc2)ccc1C(=O)N1C[C@H]2CSCCN2Cc2ccccc21` [Compound 46, (S)-2-Phenyl-N-[3-dimethylamino-4-(1,3,4,12a-tetrahydro-6H-[1,4]thiazino[4,3-a][1,4]-benzodiazepin-11(12H)-yl-carbonyl)phenyl]benzamide]: the IC50 at V2 came to 0.047 µM. The inhibition at 0.1 µM on human V-1 receptor was found to be 8%.

As to `COc1cc(NC(=O)c2ccccc2-c2ccccc2)ccc1C(=O)N1CC2COCCN2Cc2ccccc21` (racemic) [Compound 14, (RS)-2-Phenyl-N-[3-methoxy-4-(1,3,4,12a-tetrahydro-6H-[1,4]oxazino[4,3-a][1,4]-benzodiazepin-11(12H)-yl-carbonyl)phenyl]benzamide], at V2, the IC50 was 0.009 µM. Also, the inhibition at 0.1 µM on human V-1 receptor is 36%.

As for `O=C(Nc1ccc(C(=O)N2CC3COCCN3Cc3ccccc32)cc1)c1ccccc1-c1ccccc1` (racemic) [Compound 20, (RS)-2-Phenyl-N-[4-(1,3,4,12a-tetrahydro-6H-[1,4]oxazino[4,3-a][1,4]-benzodiazepin-11(12H)-yl-carbonyl)phenyl]benzamide], the IC50 on V2 was 0.008 µM. For the same molecule, the inhibition at 0.1 µM on human V-1 receptor is 69%.

`CN1CCN2Cc3ccccc3N(C(=O)c3ccc(NC(=O)c4ccccc4-c4ccccc4)cc3F)CC2C1` (racemic) [Compound 70, (RS)-2-Phenyl-N-[3-fluoro-4-(1,3,4,12a-tetrahydro-2-methyl-6H-[1,4]pyrazino[4,3-a][1,4]-benzodiazepin-11(12H)-yl-carbonyl)phenyl]benzamide]: on V2, the “V2 Bdg % inh” value is reported as “(44%/0.1 uM)”. Further, the “V1 Bdg % inh” value on human V-1 receptor (1 uM) was “(9%/1 uM)”.

“(RS)-2-Methyl-3-chloro-N-[3-chloro-4-(1,3,4,12a-tetrahydro-2-methyl-6H-[1,4]pyrazino[4,3-a][1,4]-benzodiazepin-11(12H)-yl-carbonyl)phenyl]benzamide [Compound 95]”: the “V2 Bdg % inh” value at V2 is “(38%/0.1 uM)”. On human V-1 receptor (1 uM), the “V1 Bdg % inh” value is reported as “(10%/1 uM)”.

In the case of `O=C(Nc1ccc(C(=O)N2CC3COCCN3C(=O)c3ccccc32)c(Cl)c1)c1ccccc1-c1ccccc1` (racemic) [Compound 21, (RS)-2-Phenyl-N-[3-chloro-4-(1,3,4,12a-tetrahydro-6H-[1,4]oxazino[4,3-a][1,4]-5-oxo-benzodiazepin-11(12H)-yl-carbonyl)phenyl]benzamide], on V2, the “V2 Bdg % inh” value was “(59%/0.1 uM)”. Further, at human V-1 receptor, the “V1 Bdg (% inh, 0.1 uM)” value came to 2%.
